# According to ChEMBL document CHEMBL1201862, “PubChem BioAssay data set” (2004):
# The source made the active and inactive calls.
# Columns and labels:
# Hexokinase HKDC1 = molecular target: T1, Hexokinase HKDC1 (Homo sapiens, UniProt Q2TB90); assay: HKDC1 hexokinase inhibitors, dose response, biochemical, W721R variant (AID 504729); format: functional
# T1 sequence (Q2TB90 whole entry): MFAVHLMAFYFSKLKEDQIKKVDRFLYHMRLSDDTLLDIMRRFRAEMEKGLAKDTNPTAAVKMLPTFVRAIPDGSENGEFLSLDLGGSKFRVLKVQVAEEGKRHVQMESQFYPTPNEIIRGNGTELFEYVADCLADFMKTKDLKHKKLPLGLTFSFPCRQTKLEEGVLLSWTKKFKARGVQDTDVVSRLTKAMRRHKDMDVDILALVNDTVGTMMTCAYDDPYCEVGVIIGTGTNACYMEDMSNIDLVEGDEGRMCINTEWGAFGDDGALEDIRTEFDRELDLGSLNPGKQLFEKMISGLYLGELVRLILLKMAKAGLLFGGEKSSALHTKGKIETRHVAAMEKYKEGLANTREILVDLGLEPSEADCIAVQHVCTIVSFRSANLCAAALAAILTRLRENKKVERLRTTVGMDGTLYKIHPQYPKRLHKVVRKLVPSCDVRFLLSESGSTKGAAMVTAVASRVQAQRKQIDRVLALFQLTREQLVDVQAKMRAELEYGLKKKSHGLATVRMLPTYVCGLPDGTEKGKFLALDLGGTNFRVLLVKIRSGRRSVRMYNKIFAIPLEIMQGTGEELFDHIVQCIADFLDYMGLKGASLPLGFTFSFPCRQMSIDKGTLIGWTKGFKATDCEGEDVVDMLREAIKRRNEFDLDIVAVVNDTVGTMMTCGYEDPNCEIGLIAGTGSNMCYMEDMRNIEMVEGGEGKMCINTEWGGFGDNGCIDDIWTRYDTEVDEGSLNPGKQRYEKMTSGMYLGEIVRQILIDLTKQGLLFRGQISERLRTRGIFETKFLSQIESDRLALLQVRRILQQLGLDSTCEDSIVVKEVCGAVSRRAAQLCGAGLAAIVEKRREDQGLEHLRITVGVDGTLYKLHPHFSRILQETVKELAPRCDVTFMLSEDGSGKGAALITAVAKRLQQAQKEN
# [1] = molecular target: Scavenger receptor class B member 1 (Mus musculus, UniProt Q61009); assay: inhibitors of SR-BI mediated HDL lipid uptake, dose response, ldlA[mSR-BI] cells, fluorescence, cherry pick (AID 493194); format: functional, cell-based;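 also: cellular uptake of fluorescent DiI-labeled HDL measured as cell fluorescence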
# Sequence of Scavenger receptor class B member 1 (Q61009 whole entry): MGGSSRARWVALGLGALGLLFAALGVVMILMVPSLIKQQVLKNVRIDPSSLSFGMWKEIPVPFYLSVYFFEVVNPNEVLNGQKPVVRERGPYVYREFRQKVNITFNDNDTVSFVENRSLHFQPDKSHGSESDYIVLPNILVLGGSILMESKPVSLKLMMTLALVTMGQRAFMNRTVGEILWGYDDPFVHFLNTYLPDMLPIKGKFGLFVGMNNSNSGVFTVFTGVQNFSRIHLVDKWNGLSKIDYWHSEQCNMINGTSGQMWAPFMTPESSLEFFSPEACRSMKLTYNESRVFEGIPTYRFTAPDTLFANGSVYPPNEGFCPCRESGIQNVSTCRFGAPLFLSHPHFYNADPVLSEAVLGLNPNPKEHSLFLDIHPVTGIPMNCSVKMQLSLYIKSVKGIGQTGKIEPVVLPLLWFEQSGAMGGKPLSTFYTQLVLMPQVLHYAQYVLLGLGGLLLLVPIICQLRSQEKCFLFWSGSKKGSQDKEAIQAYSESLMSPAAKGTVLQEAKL
# [2] = human group III sPLA2 inhibitors, dose response, biochemical, QFRET, IC50 (AID 743457);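 also: green fluorescence rise as the enzyme cleaves BODIPY PC-A2 in liposomes; potency for inhibition of the enzyme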
# [3] = off-target signal loss in HeLa-CEM21 co-culture – HeLa F-luc CTL cells, cherry-picked, counter-screen for HIV-1 Env fusion inhibitor project, dose response (AID 652040); format: functional, cell-based;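 also: potency for signal decrease marking cytotoxic or nonspecific inhibition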
# Exodeoxyribonuclease V = Exodeoxyribonuclease V (Escherichia coli (strain K12), UniProt P04993+P07648+P08394); assay: E. coli RecBCD inhibitors, dose response, counter-screen for AddAB inhibitor project, absorbance, V66 E. coli, mutant T4 phage (AID 492957); format: functional, cell-based, Escherichia coli str. K-12 substr. MG1655
# Sequence of Exodeoxyribonuclease V (P04993 whole entry): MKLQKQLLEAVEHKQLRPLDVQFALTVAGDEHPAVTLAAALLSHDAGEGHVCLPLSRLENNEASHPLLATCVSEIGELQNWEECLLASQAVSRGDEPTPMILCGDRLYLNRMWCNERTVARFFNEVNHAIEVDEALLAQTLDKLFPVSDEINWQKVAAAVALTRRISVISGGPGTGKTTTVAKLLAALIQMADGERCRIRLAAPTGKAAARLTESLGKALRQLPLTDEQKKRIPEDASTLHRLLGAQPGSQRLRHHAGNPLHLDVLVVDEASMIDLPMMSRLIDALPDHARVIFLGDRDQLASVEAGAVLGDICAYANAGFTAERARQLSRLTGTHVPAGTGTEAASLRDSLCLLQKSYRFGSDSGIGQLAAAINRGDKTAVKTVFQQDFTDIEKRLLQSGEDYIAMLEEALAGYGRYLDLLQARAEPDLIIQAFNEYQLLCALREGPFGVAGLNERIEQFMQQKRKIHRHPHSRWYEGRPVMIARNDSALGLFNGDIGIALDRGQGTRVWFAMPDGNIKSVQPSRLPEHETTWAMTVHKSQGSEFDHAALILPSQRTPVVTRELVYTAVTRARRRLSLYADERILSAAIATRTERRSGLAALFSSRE
# Sequence of Exodeoxyribonuclease V (P07648 whole entry): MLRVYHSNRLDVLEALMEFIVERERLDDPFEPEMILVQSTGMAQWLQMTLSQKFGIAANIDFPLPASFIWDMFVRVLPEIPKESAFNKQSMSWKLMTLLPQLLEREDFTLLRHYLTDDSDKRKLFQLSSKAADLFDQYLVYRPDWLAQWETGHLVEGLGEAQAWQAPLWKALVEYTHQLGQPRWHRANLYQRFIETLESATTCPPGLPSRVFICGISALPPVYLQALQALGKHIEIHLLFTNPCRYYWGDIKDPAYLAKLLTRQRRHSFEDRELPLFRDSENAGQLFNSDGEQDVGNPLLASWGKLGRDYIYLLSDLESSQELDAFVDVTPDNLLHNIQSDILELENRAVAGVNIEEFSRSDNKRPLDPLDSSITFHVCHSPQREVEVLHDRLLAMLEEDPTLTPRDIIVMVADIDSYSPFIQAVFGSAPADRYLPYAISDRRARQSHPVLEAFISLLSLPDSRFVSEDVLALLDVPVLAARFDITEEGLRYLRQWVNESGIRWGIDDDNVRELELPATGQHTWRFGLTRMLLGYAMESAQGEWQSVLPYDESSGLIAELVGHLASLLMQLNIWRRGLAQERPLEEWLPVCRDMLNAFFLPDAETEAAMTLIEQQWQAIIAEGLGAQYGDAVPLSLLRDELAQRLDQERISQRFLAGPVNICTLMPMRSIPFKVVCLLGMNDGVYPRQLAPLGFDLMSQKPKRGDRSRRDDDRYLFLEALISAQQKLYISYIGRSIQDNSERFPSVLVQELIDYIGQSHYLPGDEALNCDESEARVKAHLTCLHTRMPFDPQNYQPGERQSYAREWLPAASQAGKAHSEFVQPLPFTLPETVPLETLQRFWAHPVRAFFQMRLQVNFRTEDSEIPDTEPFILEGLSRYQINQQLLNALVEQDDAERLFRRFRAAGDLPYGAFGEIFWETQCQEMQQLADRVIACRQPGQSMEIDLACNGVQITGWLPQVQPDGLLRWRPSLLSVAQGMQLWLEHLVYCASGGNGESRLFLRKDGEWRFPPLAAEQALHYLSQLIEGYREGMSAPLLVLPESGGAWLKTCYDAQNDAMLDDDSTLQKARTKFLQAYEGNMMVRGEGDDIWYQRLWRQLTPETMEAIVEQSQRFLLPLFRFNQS
# Sequence of Exodeoxyribonuclease V (P08394 whole entry): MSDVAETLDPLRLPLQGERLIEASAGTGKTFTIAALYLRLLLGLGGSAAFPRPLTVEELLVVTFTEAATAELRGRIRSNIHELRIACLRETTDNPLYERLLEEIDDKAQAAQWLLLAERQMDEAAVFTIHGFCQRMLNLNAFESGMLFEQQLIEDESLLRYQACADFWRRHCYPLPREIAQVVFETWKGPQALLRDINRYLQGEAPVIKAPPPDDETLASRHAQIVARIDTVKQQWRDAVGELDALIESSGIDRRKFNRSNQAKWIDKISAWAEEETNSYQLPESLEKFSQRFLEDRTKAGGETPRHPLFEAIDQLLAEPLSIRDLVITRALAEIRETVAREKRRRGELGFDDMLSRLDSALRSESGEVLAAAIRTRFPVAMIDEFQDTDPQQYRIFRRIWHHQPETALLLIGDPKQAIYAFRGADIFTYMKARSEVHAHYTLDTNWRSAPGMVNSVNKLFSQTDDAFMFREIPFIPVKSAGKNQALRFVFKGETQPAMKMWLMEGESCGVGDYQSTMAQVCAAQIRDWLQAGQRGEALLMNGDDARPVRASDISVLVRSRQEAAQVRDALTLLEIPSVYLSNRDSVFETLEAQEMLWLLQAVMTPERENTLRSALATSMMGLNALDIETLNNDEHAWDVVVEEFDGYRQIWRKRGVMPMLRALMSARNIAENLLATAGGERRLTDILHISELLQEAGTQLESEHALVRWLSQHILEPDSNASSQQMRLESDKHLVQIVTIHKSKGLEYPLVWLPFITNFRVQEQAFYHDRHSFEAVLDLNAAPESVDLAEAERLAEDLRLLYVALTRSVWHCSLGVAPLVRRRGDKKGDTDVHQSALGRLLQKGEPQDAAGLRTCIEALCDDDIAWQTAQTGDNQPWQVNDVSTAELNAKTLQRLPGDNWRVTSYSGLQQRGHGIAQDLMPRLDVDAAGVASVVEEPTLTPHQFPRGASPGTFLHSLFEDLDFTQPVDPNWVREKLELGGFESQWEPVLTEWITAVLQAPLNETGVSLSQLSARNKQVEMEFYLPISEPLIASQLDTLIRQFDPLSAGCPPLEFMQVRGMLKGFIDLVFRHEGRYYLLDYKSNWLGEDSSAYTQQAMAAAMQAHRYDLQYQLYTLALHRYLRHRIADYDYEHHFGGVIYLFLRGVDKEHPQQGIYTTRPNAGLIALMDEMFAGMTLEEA
# [4] = Counterscreen for AddAB inhibitors: absorbance-based bacterial cell-based high throughput dose response assay for inhibitors of bacterial viability. [Related pubchem assays (depositor defined):AID435030, AID449728, AID449731, AID488942, AID488955, AID488956]; format: functional
structure (smiles),measurement,setting,value
Cc1cc2cc(CCNC(=O)c3ccc(S(=O)(=O)N4CCCC4)cc3)c(O)nc2cc1C,IC50,Hexokinase HKDC1,13.6 µM (active)
COc1ccccc1Nc1nc(-c2c(C)[nH]c3ccccc23)cs1,AC50,[1],19.4 µM (active)
CCOc1ccc2c(c1)-c1c(ssc1=S)C(C)(C)N2C(=O)c1ccco1,AC50,[1],13.7 µM (active)
same,IC50,[2],46.2 µM (inactive)
same,AC50,[3],17.6 µM (active)
CCOC(=O)c1cn(CC)c2cc(N3CCSCC3)c(F)cc2c1=O,IC50,Exodeoxyribonuclease V,> 119 µM (inactive)
same,IC50,[4],63.8 µM (inactive)
